Test results reported in patent publication US20220079984A1, “METHOD FOR TREATING CANCER WITH KIDNEY PROTECTION” (Renibus Therapeutics, Inc., priority 2020, published 2022).

Assays:
[1] = system: mice; experiment: SnPP preconditioning against cisplatin nephrotoxicity; format: in vivo; design: P creatinine: unit not given here
[2] = system: CD-1 mice; experiment: RBT-3 preconditioning: cisplatin nephrotoxicity and renal cisplatin uptake; format: in vivo; details: cisplatin 15 mg/Kg IP ± 1 mg RBT-3 IV 18 hrs before, 3 days post cisplatin, mean ± SEM
Protocol: 4. […] Mice were injected with 1 mg RBT-3 or saline vehicle via the tail vein (n, 5 each). […] Free food and water were provided throughout. […] Plasma levels of the proximal tubule enzyme, N-acetyl glucosamidase (“NAG”), were also assessed (BioAssay Systems #DNAG-100; Hayward, Calif.). […] Statistics. Each sample was assayed in duplicate with the average being used for data presentation and analysis. The human hepcidin data are presented as means±1 SD. Baseline plasma hepcidin values for the HV and CKD groups were compared by unpaired Student's t test. Comparisons of hepcidin levels over time were analyzed by ANOVA for repeated measures with 95% confidence intervals being presented. Baseline demographic data were compared by unpaired Student's t test. Mouse data are given as means±1 SEM.

[3] = SnPP 1 umole or vehicle day zero, cisplatin 15 mg/kg day 1, 3 days post cisplatin

SMILES	protection in cisplatin treated mice, compared to cisplatin alone ([1]; P<0.01)	HO-1 mRNA ([1]; 3 days post cisplatin)	IL-6 mRNA ([1]; 3 days post cisplatin)	MCP-1 mRNA ([1]; 3 days post cisplatin)	NGAL mRNA ([1]; 3 days post cisplatin)	P21 mRNAs ([1]; 3 days post cisplatin)	BUN [1, 3]	P creatinine [1, 3]	Tissue LDH ([1]; renal cortical, 3 days post cisplatin)	BUN [2]	Creat [2]	Plasma NAG [2]
C=Cc1c2[n-]c(c1C)/C=c1\[n-]/c(c(C)c1C=C)=C\c1[n-]c(c(CCC(=O)O)c1C)/C=c1\[n-]c(c(C)c1CCC(=O)O)=C2.[Sn+4] [SnPP, tin protoporphyrin]	statistically significant protection	–	–	–	–	–	–	–	–	–	–	–
N.N.[Cl][Pt][Cl] [Cisplatin, cis-diammine dichloroplatinum II]	–	1.16 ± 0.28	2.51 ± 1.65	10.9 ± 5.7	16.9 ± 12	4.23 ± 0.61	103 ± 22	0.94 ± 0.41	754 ± 54	105 ± 11 mg/dL	0.7 ± 0.1 mg/dL	19.5 ± 0.8 activity units/liter
